Consider 16 compounds from patent US4789667A, “External pharmaceutical composition and methods of use” (priority 1984, dated 1988).

This assay concerns carrageenan-induced edema. Kind of assay: Carrageenan-induced edema inhibiting effect of betamethasone valerate ointment. The class given is in vivo. The conditions noted are these: rat paw, 0.15 part betamethasone valerate, 9.85 parts enhancer, vs gel ointment base. Here is the method:
The carrageenan-induced edema inhibiting effect of the ointment was examined in accordance with the method of E. Passarella [Arzneim, Forsch. 30 (I), No. 4, pages 647-651 (1980)]. Specifically, 0.1 ml of a 1% carrageenan suspension in 0.9% NaCl solution was injected into the tip of the right paw of each rat (body weight 150-175 g). The volume of the paw was measured before the administation of carrageenan and 3, 5 and 6 hours after the carrageenan administration by a mercury displacement device. The ointment was well rubbed into the inflamed site in an amount of 100 mg.
These ointments were applied to the tip of the paw, and their edema inhibiting effects were examined.
The percent edema inhibitions were calculated on the basis of the edema formation ratio of a rat to which only the gel ointment base was administered.
A general note: The carrageenan paw model is a standard test of acute inflammation.

On to `CCCCCCCCCCOC(=O)C1CCC(=O)N1` (racemic) [Compound (102), Decyl DL-pyroglutamate], for which the Edema inhibition came to 16.3% (3 hrs.), 39.7% (6 hrs.) and 38.3% (9 hrs.).
Turning to `CCCCCCCCCCCOC(=O)C1CCC(=O)N1` (racemic) [Compound (104), Undecyl DL-pyroglutamate], the Edema inhibition runs as follows: (3 hrs.) 20.3%; (6 hrs.) 40.1%; (9 hrs.) 35.4%.
As to `CCCCCCCCCCCCOC(=O)C1CCC(=O)N1` (racemic) [Compound (106), Dodecyl DL-pyroglutamate], the Edema inhibition runs as follows: (3 hrs.) 17.4%; (6 hrs.) 40.1%; (9 hrs.) 40.0%.
On the same counts, the results for `CCCCCCCCCCCCCOC(=O)C1CCC(=O)N1` (racemic) [Compound (108), Tridecyl DL-pyroglutamate] are 18.8%, 35.3% and 38.1%.
Turning to `CCCCCCCCCCCCCCOC(=O)C1CCC(=O)N1` (racemic) [Compound (110), Tetradecyl DL-pyroglutamate], the Edema inhibition is 17.4% (3 hrs.), 38.0% (6 hrs.) and 38.6% (9 hrs.).
For the compound `CCCCCCCCCCCCCCCCCCCCOC(=O)C1CCC(=O)N1` (racemic) [Eicosanyl DL-pyroglutamate], the Edema inhibition is recorded as 9.2% (3 hrs.), 11.1% (6 hrs.) and 16.7% (9 hrs.).
For `CCOC(=O)C1CCC(=O)N1` (racemic) [Ethyl DL-pyroglutamate], the Edema inhibition (3 hrs.) came to 9.5%, the Edema inhibition (6 hrs.) was 10.2% and the Edema inhibition (9 hrs.) stood at 12.1%.
The corresponding values for `CCCCCCCCCCCCCCCCCOC(=O)C1CCC(=O)N1` (racemic) [Heptadecyl DL-pyroglutamate] are 10.5%, 12.8% and 14.8%.
Consider `CCCCCCCOC(=O)C1CCC(=O)N1` (racemic) [Heptyl DL-pyroglutamate], for which the Edema inhibition reads like this: (3 hrs.) 10.7%; (6 hrs.) 10.9%; (9 hrs.) 9.5%.
The corresponding values for `CCCCCCOC(=O)C1CCC(=O)N1` (racemic) [Hexyl DL-pyroglutamate] are 11.2%, 11.5% and 11.0%.
For `CCCCCCCCCCCCCCCCCCOC(=O)C1CCC(=O)N1` (racemic) [Octadecyl DL-pyroglutamate], the Edema inhibition reads like this: (3 hrs.) 9.6%; (6 hrs.) 13.0%; (9 hrs.) 15.6%.
Take `CCCCCCCCCCOC(=O)[C@@H]1CCC(=O)N1` [Compound (112), Decyl L-pyroglutamate]: the Edema inhibition by setting is: (3 hrs.) 18.6%; (6 hrs.) 38.9%; (9 hrs.) 37.4%.
The corresponding values for `CCCCCCCCCCCOC(=O)[C@@H]1CCC(=O)N1` [Compound (114), Undecyl L-pyroglutamate] are 20.2%, 38.5% and 37.3%.
On the same counts, the results for `CCCCCCCCCCCCOC(=O)[C@@H]1CCC(=O)N1` [Compound (116), Dodecyl L-pyroglutamate] are 19.8%, 40.2% and 40.3%.
The corresponding values for `CCCCCCCCCCCCCOC(=O)[C@@H]1CCC(=O)N1` [Compound (118), Tridecyl L-pyroglutamate] are 20.0%, 38.5% and 36.8%.
As to `CCCCCCCCCCCCCCOC(=O)[C@@H]1CCC(=O)N1` [Compound (120), Tetradecyl L-pyroglutamate], the Edema inhibition runs as follows: (3 hrs.) 17.8%; (6 hrs.) 38.5%; (9 hrs.) 39.6%.
